Results from patent US6201006A, “Aromatic amidine derivatives useful as selective thrombin inhibitors” (C & C Research Laboratories, priority 1996, dated 2001).

Molecular target: T1, human thrombin (Homo sapiens, UniProt P00734)
T1 construct: purchased Sigma T-6759
Test: Inhibitory activity for thrombin (chromogenic substrate hydrolysis, 405 nm)
Format: biochemical
Details: for IC50: human thrombin, 20 min, pH 8.0, N-benzoyl-Phe-Val-Arg-p-nitroanilide; for Selectivity (trypsin/thrombin): IC50 for trypsin divided by IC50 for thrombin
Protocol: 20 μl of each compound of the present invention was dissolved in 50% methanol in various concentrations and then added to each well of a microplate, to each of which 160 μl of the reaction medium containing 125 mM NaCl, 50 mM Tris-HCl (pH 8.0) and 2 mM synthetic substrate (N-benzoyl-Phe-Val-Arg-p-nitroanilide, Sigma B-7632) were added. 20 μl of human thrombin solution (5 units/ml, Sigma T-6759, manufactured by Sigma Co.) containing 0.1% bovine serum albumin was added to each well to initiate the enzymatic reaction. After 20 minutes, the hydrolysis of substrate was determined by measuring the absorbance at 405 nm. […] The selectivity index was calculated by dividing the IC50 value for trypsin by the IC50 value for thrombin. The thrombin inhibitory activity and the trypsin inhibitory activity for the compound of the present invention are shown in the following Table 2.

| Compound | IC50 | Selectivity (trypsin/thrombin) |
| --- | --- | --- |
| Cn1c(CC[C@@H]2CCCN2Cc2c(C(N)=O)sc3ccccc23)cc2ccc(C(=N)N)cc21 [Compound 9] | 33.9 nM | – |
| CCn1c(CC[C@@H]2CCCN2C(=O)Cc2ccccc2C(=O)O)cc2ccc(C(=N)N)cc21 [Compound 24, 2-[2-[(S)-2-[2-(6-amidino-1-ethylindol-2-yl)ethyl]pyrrolidinyl]-2-oxoethyl]benzoic acid] | 8.45 nM | 83.6 |
| CCn1c(CC[C@@H]2CCCN2C(=O)[C@H](NS(C)(=O)=O)c2ccccc2)cc2ccc(C(=N)N)cc21 [Compound 37, 1ethyl-2-[2-[(S)-1-((R)-2-methylsulfonylamino-2-phenylacetyl)pyrrolidin-2-yl]ethyl]indole-6-carboxamidine] | 5.4 nM | – |
| CCn1c(CC[C@@H]2CCCN2C(=O)[C@H](NCC(N)=O)c2ccccc2)cc2ccc(C(=N)N)cc21 [Compound 39, 1ethyl-2-[2-[(S)-1-[(R)-2-(carbamoylmethylamino)-2-phenylacetyl]pyrrolidin-2-yl]ethyl]indole-6-carboxamidine] | 6.91 nM | – |
| CCn1c(CC[C@@H]2CCCN2C(=O)[C@H](NCC(=O)O)c2ccccc2)cc2ccc(C(=N)N)cc21 [Compound 40, 2-[[(R)-2-[2-(S)-2-[2-(6-amidino-1-ethylindol-2-yl)ethyl]pyrrolidinyl]-2-oxo-1-phenylethyl]amino]acetic acid] | 7.95 nM | – |
| CCn1c(CC[C@@H]2CCCN2C(=O)CC2CCCC2)cc2ccc(C(=N)N)cc21 [Compound 43, 1ethyl-2-[2-[(S)-1-(2-cyclopentylacetyl)pyrrolidin-2-yl]ethyl]indole-6-carboxamidine] | 9.96 nM | 40.3 |
| CCn1c(CC[C@@H]2CCCN2C(=O)CC2CCCCC2)cc2ccc(C(=N)N)cc21 [Compound 46, 1ethyl-2-[2-[(S)-1-(2-cyclohexylacetyl)pyrrolidin-2-yl]ethyl]indole-6-carboxamidine] | 28.9 nM | – |
| CCn1c(CC[C@@H]2CCCN2C(=O)CNC2CC2)cc2ccc(C(=N)N)cc21 [Compound 57, 1-ethyl-2-[2-[(S)-1-(2-cyclopropylaminoacetyl)pyrrolidin-2-yl]ethyl]indole-6-carboxamidine] | 7.73 nM | – |
| CCOC(=O)CN(CC(=O)N1CCC[C@H]1CCc1cc2ccc(C(=N)N)cc2n1CC)C1CC1 [Compound 62, ethyl 2-[[2-[(S)-2-[2-(6-amidino-1-ethylindol-2-yl)ethyl]pyrrolidinyl]-2-oxoethyl]cyclopropylamino]acetate] | 11.7 nM | 49.7 |
| CCOC(=O)CN(C1CC1)C(C)C(=O)N1CCC[C@H]1CCc1cc2ccc(C(=N)N)cc2n1CC (stereo partly drawn) [Compound 64, ethyl 2-[[2-[(S)-2-[2-(6-amidino-1-ethylindol-2-yl)ethyl]pyrrolidinyl]-1-methyl-2-oxoethyl]cyclo-propylamino]acetate] | 15.2 nM | 22.9 |
| CCn1c(CC[C@@H]2CCCN2C(=O)C(C)N(CC(=O)O)C2CC2)cc2ccc(C(=N)N)cc21 (stereo partly drawn) [Compound 65, 2-[[2-[(S)-2-[2-(6-amidino-1-ethylindol-2-yl)ethyl]pyrrolidinyl]-1-methyl-2-oxoethyl]cyclopylamino]acetic acid] | 22.1 nM | – |
| CCOC(=O)CC(NC1CC1)C(=O)N1CCC[C@H]1CCc1cc2ccc(C(=N)N)cc2n1CC (stereo partly drawn) [Compound 72, ethyl 4-[(S)-2-[2-(6-amidino-1-ethylindol-2-yl)ethyl]pyrrolidinyl]-3-cyclopropylamino-4-oxobutanoate] | 9.4 nM | 13.6 |
| CCn1c(CC[C@@H]2CCCN2C(=O)C(CC(=O)O)NC2CC2)cc2ccc(C(=N)N)cc21 (stereo partly drawn) [Compound 73, 4-[(S)-2-[2-(6-amidino-1-ethylindol-2-yl)ethyl]pyrrolidinyl]-3-cyclopropylamino-4-oxobutanoic acid] | 33.2 nM | – |
| CCn1c(CC[C@@H]2CCCN2C(=O)[C@H]2CCCN2)cc2ccc(C(=N)N)cc21 [Compound 83] | 30.9 nM | – |
| CCOC(=O)CN1CCC[C@@H]1C(=O)N1CCC[C@H]1CCc1cc2ccc(C(=N)N)cc2n1C [Compound 84, ethyl 2-[(R)-2-[[(S)-2-[2-(6-amidino-1-methylindol-2-yl)ethyl]pyrrolidinyl]carbonyl]pyrrolidinyl]acetate] | 51.6 nM | 87.0 |
| CCn1c(CC[C@H]2C[C@H](C)CN2C(=O)[C@H]2CCCN2CC(=O)O)cc2ccc(C(=N)N)cc21 [Compound 98, 2-[(R)-2-[[(S)-2-[2-(6-amidino-1-ethylindol-2-yl)ethyl]-(S)-4-methylpyrrolidinyl]carbonyl]pyrrolidinyl]acetic acid] | 20.3 nM | – |
| CCOC(=O)C(C)N1CCC[C@@H]1C(=O)N1CCC[C@H]1CCc1cc2ccc(C(=N)N)cc2n1CC (stereo partly drawn) [Compound 109, ethyl-2-[(R)-2-[[(S)-2-[2-(6-amidino-1-ethylindol-2-yl)ethyl]pyrrolidinyl]carbonyl]pyrrolidinyl]propionate] | 31.9 nM | – |
| CCOC(=O)C(CC)N1CCC[C@@H]1C(=O)N1CCC[C@H]1CCc1cc2ccc(C(=N)N)cc2n1CC (stereo partly drawn) [Compound 110, ethyl 2-[(R)-2-[[(S)-2-[2-(6-amidino-1-ethylindol-2-yl)ethyl]pyrrolidinyl]carbonyl]pyrrolidinyl]butanoate] | 37.7 nM | 38.6 |
| CCOC(=O)C(c1ccccc1)N1CCC[C@@H]1C(=O)N1CCC[C@H]1CCc1cc2ccc(C(=N)N)cc2n1CC (stereo partly drawn) [Compound 112, ethyl-2-[(R)-2-[[(S)-2-[2-(6-amidino-1-ethylindol-2-yl)ethyl]pyrrolidinyl]carbonyl]pyrrolidinyl]-2-phenylacetate] | 29.2 nM | – |
| CCn1c(CC[C@@H]2CCCN2C(=O)[C@H]2CCCN2CC(=O)NC2CC2)cc2ccc(C(=N)N)cc21 [Compound 115, 1-ethyl-2-[2-[(S)-1-[[(R)-1-[(N-cyclopropylcarbamoyl)methyl]pyrrolidin-2-yl]carbonyl]pyrrolidin-2-yl]-ethyl]indole-6-carboxamidine] | 31.8 nM | – |
| CCOC(=O)[C@H](C)NC(=O)CN1CCC[C@@H]1C(=O)N1CCC[C@H]1CCc1cc2ccc(C(=N)N)cc2n1CC [Compound 116, ethyl (s)-2-[2-[(R)-2-[[(S)-2-[2-(6-amidino-1-ethylindol-2-yl)ethyl]pyrrolidinyl]carbonyl]pyrrolidinyl]-acetylamino]propanoate] | 31.7 nM | 27.4 |
| CCn1c(CCC2CCCN2C(=O)C2CCCN2C(CC(=O)O)C(=O)O)cc2ccc(C(=N)N)cc21 [Compound 123, 1-[(R)-2-[[(S)-2-[2-(6-amidino-1-ethyl-indol-2-yl)ethyl]pyrrolidinyl]carbonyl]pyrrolidinyl]ethane-1,2-dicarboxylic acid] | 32.9 nM | – |
| CCOC(=O)CCCCN1CCC[C@@H]1C(=O)N1CCC[C@H]1CCc1cc2ccc(C(=N)N)cc2n1CC [Compound 128, ethyl 5-[(R)-2-[[(S)-2-[2-(6-amidino-1-ethylindol-2-yl)ethyl]pyrrolidinyl]carbonyl]pyrrolidinyl]pentanoate] | 26.2 nM | – |
| CCn1c(CC[C@@H]2CCCN2C(=O)[C@H]2CCCN2CCCCC(=O)O)cc2ccc(C(=N)N)cc21 [Compound 129, 5-[(R)-2-[[(S)-2-[2-(6-amidino-1-ethylindol-2-yl)-ethyl]pyrrolidinyl]carbonyl]pyrrolidinyl]pentanoic acid] | 13.1 nM | 10.6 |
| CCOC(=O)CCCCCN1CCC[C@@H]1C(=O)N1CCC[C@H]1CCc1cc2ccc(C(=N)N)cc2n1CC [Compound 130, ethyl 6-[(R)-2-[[(S)-2-[2-(6-amidino-1-ethylindol-2-yl)-ethyl]pyrrolidinyl]carbonyl]pyrrolidinyl]hexanoate] | 36.5 nM | – |
| CCn1c(CC[C@@H]2CCCN2C(=O)[C@H]2CCCN2CCCCCC(=O)O)cc2ccc(C(=N)N)cc21 [Compound 131, 6-[(R)-2-[[(S)-2-[2-(6-amidino-1-ethylindol-2-yl)-ethyl]pyrrolidinyl]carbonyl]pyrrolidinyl]hexanoic acid] | 9.29 nM | 14.7 |
| CCn1c(CC[C@@H]2CCCN2C(=O)[C@H]2CCCN2C(=O)CNC)cc2ccc(C(=N)N)cc21 [Compound 142, 1-ethyl-2-[2-[(S)-1-[[(R)-1-[2-(methylamino)acetyl]pyrrolidin-2-yl]carbonyl]pyrrolidin-2-yl]ethyl]indole-6-carboxamidine] | 33.1 nM | – |
| CCC(N)C(=O)N1CCC[C@@H]1C(=O)N1CCC[C@H]1CCc1cc2ccc(C(=N)N)cc2n1CC (stereo partly drawn) [Compound 144, 1-ethyl-2-[2-[(S)-1-[[(R)-1-(2-aminobutanoyl)pyrrolidin-2-yl]carbonyl]pyrrolidin-2-yl]ethyl]indole-6-carboxamidine] | 25.3 nM | – |
| CCn1c(CC[C@@H]2CCCN2C(=O)[C@H]2CCCN2C(=O)[C@@H](N)C(C)C)cc2ccc(C(=N)N)cc21 [Compound 145, 1-ethyl-2-[2-[(S)-1-[[(R)-1-((S)-2-amino-3-methylbutanoyl)pyrrolidin-2-yl]carbonyl]pyrrolidin-2-yl]-ethyl]indole-6-carboxamidine] | 26.1 nM | 20.1 |
| CCOC(=O)C[C@H](N)C(=O)N1CCC[C@@H]1C(=O)N1CCC[C@H]1CCc1cc2ccc(C(=N)N)cc2n1CC [Compound 147, ethyl 4-[(R)-2-[[(S)-2-[2-(6-amidino-1-ethylindol-2-yl)ethyl]pyrrolidinyl]carbonyl]pyrrolidinyl]-(S)-3-amino-4-oxobutanoate] | 25.5 nM | – |
